Like-named read-outs stand apart in the source and are kept apart here.
How the values were obtained:
[1] = biological target: Aldose Reductase from Rat Crystalline Lens (Rattus norvegicus, UniProt P07943); test: biochemical; assay type: biochemical
Method: Aldose reductase was prepared from rat lenses in the following manner. Lenses (20 to 30) were homogenized in 20 volumes of 5 mM sodium phosphate buffer (pH 7.4), followed by centrifugation at 18,000×g for 5 min to remove insoluble materials. Solid ammonium sulfate was added to the supernatant fluid to 30% saturation. The suspension was centrifuged at 18,000×g for 10 min and the supernatant was recovered. Aldose reductase was precipitated from 30% saturated solution by the addition of solid ammonium sulfate to 75% saturation, and obtained by centrifugation. The precipitate was collected and suspended in 3.2M ammonium sulfate.
The enzyme solution was assayed by following the absorbance at 340 nm on a Shimadzu UV-2000 spectrophotometer equipped with a temperature-controlled cuvette chamber. The solution (0.1 ml) was added to a cuvette containing phosphate buffer (1.6 ml, pH 6.2, 0.1M final concentration) and NADPH (0.1 ml, 0.25 mM final concentration), and the cuvette was inserted into the spectrophotometer. The reaction was started by the addition of DL-glyceraldehyde (0.1 ml, 50 mM final concentration) to the cuvette, and the decrease of absorbance at 340 nm for 5 min at 25° C. was measured. […] Agents to be tested were dissolved with a minimal amount of dimethylsulfoxide and diluted to the desired concentration with purified water. The resulting solution (0.1 ml) was added to the cuvette. The reference blank (to correct for non-specific oxidation of NADPH and absorption of the agents) was prepared by using water instead of DL-glyceraldehyde solution.

[2] = tested on: Diamide-Treated Mice Lenses; test: Na+/K+ ratio and Ca2+ contents in diamide-treated mice lenses; assay type: cell-based, mouse (ddY); settings: for Ca2+ content (in words) / Na+/K+ ratio (in words): 1 Mm (so in the source), vs control levels; for Ca2+ content / K+ content / Na+ content / Na/K ratio: diamide-treated lenses, 1 mM agent
Method: Male ddY mice, 6 weeks old, were killed by decapitation, and the […] were excised. The lenses were removed by a posterior approach and then transferred on a nylon net to a petri dish containing D-MEM medium (low glucose). The lenses were incubated at 37° C. for 19-20 hr in CO2 incubator under 5% CO2 -air and clear transparent lenses were collected to be used for following experiments. The lenses were incubated at 37° C. for 1.5 hr in 3 ml of isotonic HEPES buffer (10 mM HEPES, 136.2 mM NaCl, 5.3 mM KCl, 1.0 mM K2 HPO4, 1.7 mM CaC2 .cndot.2H2 O, 5.5 mM glucose pH 7.4) containing 1 mM diamide and the HEPES buffer without glucose. Those were transferred to an incubation test tube containing 3 ml of isotonic HEPES buffer (pH 7.4) with 1 mM DDC or GE. The diamide treated and non-treated controls were treated by the 5 hr-incubation without the above agents. The wet weight of these treated lenses were determined. Lenses were dried in vacuo at 100° C. for 8 hr, and then digested in 60% nitric acid (100 μl/lens) at 80° C. to degrade organic substances. One milliliter of purified water was added to the digests, and centrifuged at 3000×g for 10 min. Two tenth ml of the supernatant was mixed with 2 ml of purified water, and was used for measurement of Na^+ and K^+. One tenth milliliter of 100 μg/ml lanthanum chloride was added to the residual supernatant and used for measurement of Ca^2+, Na^+,K^+ and Ca^2+ contents in the lenses were determined by atomic absorption spectrometer (Hitachi 180-80, Tokyo, Japan).

[3] = tested on: Diamide-Treatment Mice Lenses; test: GSH content in diamide-treated mice lenses; assay type: cell-based, mouse (ddY); settings: for GSH content: 1 mM diamide
Method: Male ddY mice, 6 weeks old, were killed by decapitation, and the globes were excised. The lenses were removed by a posterior approach and then transferred on a nylon net to an petri containing D-MEM medium (low glucose). The lenses were incubated at 37 ° C. for […] and clear transparent lenses were collected to be used for following experiments. […] Those were transferred to an incubation test tube containing 3 ml of isotonic HEPES buffer (pH 7.4) containing 5.5 mM glucose with 1 mM DDC or GE (glutathione isopropyl ester). The diamide treated and non-treated controls were treated by the 5 hr--incubation without the above agents. The wet weight of these treated lenses were determined.
The treated lenses were homogenized with 0.5 ml of purified water by Teflon homogenizer. GSH in the homogenate was determined by the method of Beutler using DTNB and the HPLC method followed.
Fifty microliter of the lens homogenate were added into 100 μl of acetonitrile containing 100 μg of sodium pantothenate (internal standard) and centrifuged at 12,000 rpm for 10 min. The supernatant solution (10 μl) was injected into a HPLC apparatus, Shimadzu LC-10AD equipped with a column oven, CTO-6A and the chromatography were performed under the conditions: a column of Supersphere 100RP-18 (particle size: 4 μm, column size: 4.0×250 mm), mobile phase of 5% methanol containing 1.0% TFA, flow rate of 1 ml/min, and column temperature at 35° C.

[4] = tested on: rabbit cornea; test: In vitro transcorneal penetration of DDC from liposomes; assay type: in vitro ADME
Method: Male rabbit, 2.0 kg of body weight was sacrificed by a injection of lethal dose of pentobarbital into a […] and then two eyeballs were removed from […]. The cornea was set to the cell in which donor side was filled with liposomes containing DSF and in reservoir side with 10 mM HEPES buffer (pH 7.4) containing 136 mM NaCl, 5.3 mM KCl, 1.0 mM K2 HPO4, 1.7 mM CaCl2 and 5.5 mM glucose, shown in FIG. 2. The penetration was carried out at 37° C. for 0-6 hr. The sample (50 μl) was withdrawn from reservoir side at the indicated times. DDC in the sample was determined by the HPLC method (FIG. 2).

[5] = pH 6.2, 25° C., DL-glyceraldehyde substrate, read-out: IC50

`CC(S)C(=O)NCC(=O)O` (stereo not shown) [Tiopronin] showed an IC50 [1, 5] of 1350 µM.
For `CC(C)OC(=O)CNC(=O)[C@H](CS)NC(=O)CC[C@H](N)C(=O)O` [GE, Glutathione isopropyl ester], the “inhibitory activity against rat lens aldose reductase (in words)” value [1] was “lower inhibitory activities”, the IC50 [1, 5] was 760 µM and the “Ca2+ content (in words)” value [2] was “restored completely”. The “Na+/K+ ratio (in words)” value [2] was “restored completely”, the “Ca2+ content” value [2] was 1.39 ± 0.30 mmol/kg of H2 O and the “K+ content” value [2] was 79.67 ± 8.63 mmol/kg of H2 O. The “Na+ content” value [2] was 51.60 ± 9.57 mmol/kg of H2 O, the Na/K ratio [2] was 0.67 ± 0.20 and the “total GSH in diamide-treated lenses (in words)” value ([3]; DTNB method, 1 mM agent) was “restored by the control GSH level”. The GSH content ([3]; DTNB method, 1 mM agent) was 10.3 μg/lens, the “restoring of GSH (in words)” value ([3]; HPLC method) was “restoring of GSH” and the GSH content ([3]; HPLC method, 1 mM agent) was 4.0 μg/lens.
In the case of `O[C@H](CS)[C@H](O)CS` (relative stereo) [DTT], the “Ca2+ content (in words)” value [2] is reported as “restored completely” and the “Na+/K+ ratio (in words)” value [2] is reported as “restored completely”.
In the case of `CCN(CC)C(=S)S` [DDC, Diethyldithiocarbamate], the “DDC content in the reservoir solution relative to that at pH 8.0” value ([4]; pH 6.5, six hours after incubation) is reported as “one third” and the “effect of BSA on DDC penetration (in words)” value ([4]; pH 8.0, 1.75% BSA in donor solution) is reported as “did not affect”.
With `CO[C@@]1(NC(=O)CSCC#N)C(=O)N2C(C(=O)O)=C(CSc3nnnn3C)CS[C@@H]21` [CMZ, cefmetazole] the “inhibitory activity against rat lens aldose reductase (in words)” value [1] was “lower inhibitory activities”, the IC50 [1, 5] was 450 µM and the “Ca2+ content (in words)” value [2] was “restored completely”. For the same compound, the “Na+/K+ ratio (in words)” value [2] was “restored completely”, the “Ca2+ content” value [2] was 1.11 ± 0.36 mmol/kg of H2 O and the “K+ content” value [2] was 84.91 ± 10.06 mmol/kg of H2 O. For the same compound, the “Na+ content” value [2] was 40.59 ± 10.16 mmol/kg of H2 O and the Na/K ratio [2] was 0.50 ± 0.19.
For `C[C@@H]1O[C@@H](Oc2c(-c3ccc(O)c(O)c3)oc3cc(O)cc(O)c3c2=O)[C@H](O)[C@H](O)[C@H]1O` [Quercitrin], the IC50 [1] was 0.26 µM and the “inhibitory activity against rat lens aldose reductase (in words)” value [1] was “lower inhibitory activities”.
For `CCN(CC)C(=S)[S-].[Na+]` [DDC-Na, Sodium diethyldithiocarbamate], the IC50 [1] was 2600 µM, the “Ca2+ content” value [2] was 1.09 ± 0.33 mmol/kg of H2 O and the “K+ content” value [2] was 86.25 ± 4.02 mmol/kg of H2 O. The “Na+ content” value [2] was 36.56 ± 4.38 mmol/kg of H2 O, the Na/K ratio [2] was 0.43 ± 0.07 and the GSH content ([3]; DTNB method, 1 mM agent) was 9.8 μg/lens. The GSH content ([3]; HPLC method, 1 mM agent) was 3.9 μg/lens.
For `N[C@@H](CCC(=O)N[C@@H](CS)C(=O)NCC(=O)O)C(=O)O` [Glutathione (GSH), Glutathione], the IC50 [1, 5] was 1550 µM.
In the case of `CC(=C(CCO)SSCC1CCCO1)N(C=O)Cc1cnc(C)nc1N` (stereo in doubt) [Frusultiamine (Alinamine F), Frusultiamine], the IC50 [1, 5] is reported as 1000 µM.
For `CCN(CC)C(=S)SSC(=S)N(CC)CC` [DSF, tetraethylthiuram disulfide], the “inhibitory activity against rat lens aldose reductase (in words)” value [1] was “lower inhibitory activities” and the IC50 [1, 5] was 120 µM.
With `O=C(O)c1cc(O)c2c3nc4ccccc4oc-3cc(=O)c2n1` [Pirenoxine (Catalin), Pirenoxine] the “inhibitory activity against rat lens aldose reductase (in words)” value [1] was “lower inhibitory activities” and the IC50 [1, 5] was 17.5 µM.
